From article PMC6811539, “Minute-scale persistence of a GPCR conformation state triggered by non-cognate G protein interactions primes signaling” (Nature Communications, 2019)
Several values for one entry are separate records, joined by “and”; a condition that tells them apart may be missing. Identical values can stand only once. Like-named read-outs stand apart in the source and are kept apart here. Where a SMILES comes first, the peptide text is derived from it. The star is where a group is joined. Biotin = O=C1N[C@H]2[C@H](CS[C@H]2CCCCC(=O)*)N1

Key:
PKC = test: cAMP accumulation with PKC inhibitors in Gαq-overexpressing and untransfected HEK293T cells; type: cell-based, human; conditions: pretreatment with inhibitor 10 μM; fenoterol 10 μM, forskolin 2 μM
Source text: (§1) For concentration–response curves with Gαq overexpression as well as the knockdown experiments, transfected and control cells (untransfected or mock short hairpin RNA transfected) were resuspended to equivalent concentration (4 × 10^6 cells/ml) based on Countess II numbers.

β2-AR SPASM sensors = β2-AR SPASM sensors (Homo sapiens, UniProt P07550); test: cAMP accumulation in HEK293T cells expressing β2-AR SPASM sensors (cAMP Glo); type: cell-based; conditions: saturating agonist, normalized to β2-AR-(-), mean; for Emax: HEK-293T, read-out: Maximum cAMP (Emax)
Sequence of β2-AR SPASM sensors (P07550 whole entry, one chain of several): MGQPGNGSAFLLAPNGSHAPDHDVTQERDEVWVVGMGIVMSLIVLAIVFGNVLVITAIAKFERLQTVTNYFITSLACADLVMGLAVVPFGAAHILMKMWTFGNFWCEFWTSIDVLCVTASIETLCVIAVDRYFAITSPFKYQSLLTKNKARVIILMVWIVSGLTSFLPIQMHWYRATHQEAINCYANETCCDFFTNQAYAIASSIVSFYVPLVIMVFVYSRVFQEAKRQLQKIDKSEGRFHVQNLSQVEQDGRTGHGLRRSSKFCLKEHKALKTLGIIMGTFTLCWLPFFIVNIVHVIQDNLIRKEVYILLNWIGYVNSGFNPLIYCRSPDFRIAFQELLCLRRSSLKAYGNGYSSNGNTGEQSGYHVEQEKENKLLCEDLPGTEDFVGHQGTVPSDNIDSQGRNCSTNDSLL
Sequence of β2-AR SPASM sensors (P50148 333-359, one chain of several, further chain): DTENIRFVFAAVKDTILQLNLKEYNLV

[1] = extent of photocleavage of PC-Qp by MALDI-MS; type: physicochemical
Procedure: Native membranes were prepared from cells expressing β2-mCer and were stored in sucrose-supplemented buffer A as described above (Membrane preparations). […]. Both samples were centrifuged 100,000 × g, 5 min, 4 °C to sediment the membrane. Supernatants were stored on ice for analysis by MS. Control samples containing 50 μM peptide in the buffer were also prepared.
Prior to matrix-assisted laser desorption and ionization time-of-flight MS (MALDI-TOF MS) analysis, the samples were desalted using C18 ZipTips (Millipore Corporation, Billerica, MA). The manufacturer’s standard protocol for peptide clean-up was followed. After elution from the ZipTip, 1 μL of each sample was spotted on a MALDI-TOF 384 spot stainless-steel target (Bruker Daltonics, Billerica, MA) and mixed with 1 μl of α-cyano-4-hydroxy-cinnamic acid (α-CHCA) matrix (15 mg/ml α-CHCA in 50% acetonitrile). Each spot was allowed to dry at room temperature. The target was placed in a Bruker Autoflex Speed MALDI-TOF mass spectrometer (Bruker Daltonics, Billerica, MA) equipped with a Nd-YAG 355 nm pulsed laser. The data were collected in reflectron mode, positive polarity, with an accelerating potential of 19 kV. Each spectrum was the accumulation of 4000 laser shots with complete spot raster of the laser during data collection. External calibration was performed using 0.5 μl α-CHCA and 0.5 μl of peptide standard (part# 206195, Bruker Daltonics, Billerica, MA) with Angiotensin II (monoisotopic mass [MH^+ ] 1046.5418), Angiotensin I (monoisotopic mass [MH^+ ] 1296.6848), SubstanceP (monoisotopic mass [MH^+] 1347.7354), Bombesin (monoisotopic mass [MH^+] 1619.8223), ACTH clip 1–17 (monoisotopic mass [MH^+] 2093.0862), ACTH clip 18–39 (monoisotopic mass [MH^+] 2465.1983), and Somatostatin 28 (monoisotopic mass [MH^+] 3147.4710). The Bruker data files were converted to mzXML files using MSConvertGUI tool in ProteoWizard open-source software. The mzXML files were viewed and analyzed with mMass v5.5 open-source software.

β2-AR-mCer = molecular target: T1, β2-AR-mCer (Homo sapiens, UniProt P07550); test: affinity pull-down and release (binding-and-release) assay for Gα peptide–β2-AR interaction; conditions: biotinylated peptide 30 μM, β2-mCer 10 nM
T1 construct: expressed in transfected cells; host or cells: native membranes of transiently transfected HEK293T cells
T1 sequence (P07550 whole entry): as the sequence (P07550 whole entry, one chain of several) above
Procedure: Native membranes were prepared from cells expressing β2-mCer and stored in sucrose-supplemented buffer A as described above (Membrane preparations). Membranes were sonicated (3× bursts, 15 s with 1 min pauses) and resuspended in ΔFRET buffer minus Ca^2+ to a concentration of 10 nM receptor based on fluorescence counts. bioQp/bioSp (30 μM) and 100 μM isoproterenol were added and mixed for 5 min. Samples were split into duplicates, one of which was not manipulated in any way to obtain total receptor counts. To the other tube, 20 μl of 0.4 mg/ml streptavidin-coated magnetic beads were added, mixed, and precipitated using a Neodymium disc magnet N52 (20 × 40 mm). Supernatant was removed to a fresh micro-centrifuge tube to monitor fluorescence of receptors not bound to the beads. A solution of 100 μM Qp/Sp was added to the precipitated beads, mixed, and magnetically separated again. The supernatant was collected to determine the released fraction of receptors. Fluorescence of mCer was monitored on a FluoroMax 4 fluorometer (Horiba) using 430 nm excitation (8 nm bandpass) and emission scan from 450 to 500 nm, with the maximum at 475 nm being used for the calculation. Based on total and unbound counts, the amount of receptor bound was calculated (bound = total − unbound) and compared with the counts from the released receptor (% = released/bound). […]

V1A-R with purified Gαq = test: activation of purified Gq (BODIPY-FL-GTPγS) in V1A-R membranes; type: biochemical, human (V1AR); Mus musculus (Gαq); conditions: hotspot swapped peptide vs. parent; vasopressin 100 nM
V1A-R SPASM sensors = test: IP1 levels in HEK293T cells expressing V1A-R SPASM sensors; type: cell-based, human; conditions: hotspot swapped peptide vs. parent; vasopressin 100 nM
Procedure: HEK293T cells expressing the indicated sensor were collected 28–32 h post transfection, to assess IP1 levels using the IP-One HTRF assay kit (Cisbio). Cells were gently resuspended in their original media, counted using a hemocytometer, and centrifuged (300 × g, 3 min). An appropriate volume of StimB buffer (CisBio: 10 mM Hepes, 1 mM CaCl2, 0.5 mM MgCl2, 4.2 mM KCl, 146 mM NaCl, 5.5 mM glucose, 50 mM LiCl, pH 7.4) was added to reach a density of 3 × 10^6 cells/mL. Cells were incubated at 37 °C for 15 min. Cells were subsequently incubated with or without 100 nM of Arg-vasopressin peptide for 5 min at 37 °C. The manufacturer’s protocol was modified to achieve a high signal-to-noise ratio. […] IP1 FRET spectra were collected in top read format using a FlexStation3 plate reader with a delay of 50 μs and an integration time of 300 μs. […] FRET was calculated from ratio of the emission at […] to the emission at 620 nm. […]
Supplementary Figure 1 - Hot-spot substitutions in Gα peptides affect G protein activation and downstream signaling from V1A-R. (a) Activation of G protein (Gαq) is monitored by the increase in BODIPY fluorescence upon agonist stimulation of membranes harvested from HEK293T cells expressing V1A- R, and reconstituted with purified Gαq. […] Statistically significant differences were assessed by a one- way ANOVA, followed by Tukey’s post-ANOVA test. […]

endogenous β2-AR = endogenous β2-AR (Homo sapiens, UniProt P07550); test: cell-based; conditions: HEK-293T, with forskolin 2 μM, 10 min, mean ± SD
Sequence of endogenous β2-AR (P07550 whole entry): as the sequence (P07550 whole entry, one chain of several) above
Source text: as §1

CN(C)CCCn1cc(C2=C(c3c[nH]c4ccccc34)C(=O)NC2=O)c2ccccc21 [BimI]
effect of PKC inhibitor on enhanced cAMP response of Gαq-overexpressing cells (PKC): did not block the enhanced cAMP response

CNC[C@H](O)c1ccc(O)c(O)c1 [Epinephrine, epinephrine]
Maximum cAMP (Emax) (β2-AR SPASM sensors; b2-AR-(-) sensor): 100% | Maximum cAMP (Emax) (β2-AR SPASM sensors; b2-AR-(Qp) sensor): 182.89% | Maximum cAMP (Emax) (β2-AR SPASM sensors; b2-AR-(Sp) sensor): 197.09%

N-term fragment: N-terminal fragment generated by photocleavage of PC-Qp (DTENIRFVFAAVKDTILQLNLKE)
N-term fragment cleaved (fraction, MALDI-MS) ([1]; minus UV, replicate 1): 0.33 | N-term fragment cleaved (fraction, MALDI-MS) ([1]; minus UV, replicate 2): 0.24 | N-term fragment cleaved (fraction, MALDI-MS) ([1]; minus UV, replicate 3): 0.38 | N-term fragment cleaved (fraction, MALDI-MS) ([1]; plus UV (350 nm, 2 min), replicate 1): 0.91 | N-term fragment cleaved (fraction, MALDI-MS) ([1]; plus UV (350 nm, 2 min), replicate 2): 0.91 | N-term fragment cleaved (fraction, MALDI-MS) ([1]; plus UV (350 nm, 2 min), replicate 3): 0.92

CC[C@H](C)[C@H](NC(=O)[C@H](CC(N)=O)NC(=O)[C@H](CCC(=O)O)NC(=O)[C@@H](NC(=O)[C@H](CC(=O)O)NC(=O)CCCC[C@@H]1SC[C@@H]2NC(=O)N[C@@H]21)[C@@H](C)O)C(=O)N[C@@H](CCCNC(=N)N)C(=O)N[C@@H](CCCNC(=N)N)C(=O)N[C@H](C(=O)N[C@@H](Cc1ccccc1)C(=O)N[C@@H](CC(N)=O)C(=O)N[C@@H](CC(=O)O)C(=O)N[C@@H](CS)C(=O)N[C@@H](CCCNC(=N)N)C(=O)N[C@@H](CC(=O)O)C(=O)N[C@H](C(=O)N[C@H](C(=O)N[C@@H](CCC(N)=O)C(=O)N[C@@H](CCCNC(=N)N)C(=O)N[C@@H](CCSC)C(=O)N[C@@H](Cc1c[nH]cn1)C(=O)N[C@@H](CC(C)C)C(=O)N[C@@H](CCCNC(=N)N)C(=O)N[C@@H](CCC(N)=O)C(=O)N[C@@H](Cc1ccc(O)cc1)C(=O)N[C@@H](CCC(=O)O)C(=O)N[C@@H](CC(C)C)C(=O)N[C@@H](CC(C)C)C(=O)O)[C@@H](C)CC)[C@@H](C)CC)C(C)C [bioSp] (Biotin-DTENIRRVFNDCRDIIQRMHLRQYELL-OH)
mean bound (100-Supernatant) (β2-AR-mCer; isoproterenol 100 μM, total incl. nonspecific): 54.8625% | receptor specifically pulled down (bound) (β2-AR-mCer; nonspecific subtracted, mean): 45% and 45.31%

COc1ccc2c(c1)c(C1=C(c3c[nH]c4ccccc34)C(=O)NC1=O)cn2CCCN(C)C [Gö6983]
effect of PKC inhibitor on enhanced cAMP response of Gαq-overexpressing cells (PKC): did not block the enhanced cAMP response

Qp → Sp: Qp mutant L349Q, E355Q, mimicking Sp (DTENIRFVFAAVKDTIQQLNLKQYNLV)
V1A-R G-protein activation in words (V1A-R with purified Gαq): increased cognate (Qp → Sp > Qp) | V1A-R IP1 levels in words (V1A-R SPASM sensors): increased cognate (Qp → Sp > Qp)

CC(Cc1ccc(O)cc1)NCC(O)c1cc(O)cc(O)c1 (centres unmarked) [Fenoterol, fenoterol]
Emax (β2-AR SPASM sensors; b2-AR-(-) sensor): 97.5% | Emax (β2-AR SPASM sensors; b2-AR-(Qp) sensor): 171% | Emax (β2-AR SPASM sensors; b2-AR-(Sp) sensor): 131% | Emax (endogenous β2-AR; Gαq overexpressing): 138 ± 3.15% | Emax (endogenous β2-AR; untransfected (Un.)): 94.5 ± 3.05%
